# Measured values: patent US9073858B2, “Methods of targeted drug development” (priority 2010, dated 2015)
# Like-named read-outs stand apart in the source and are kept apart here.
# Legend:
# [1] = Stability on incubation with human liver microsomes (HLM); assay type: in vitro ADME; settings: percentage left after incubation with human liver microsomes for 30 minutes
# Method in brief: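 Values are percent compound remaining after 30 min incubation with mouse or human liver microsomes.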
# A549 cells = assay: A549 Cell Proliferation Assay (MTT); assay type: cell-based; settings: Homo sapiens
# H1975 cells = assay: H1975 Cell Proliferation Assay (MTT); assay type: cell-based; settings: Homo sapiens
# annexin V in A549 cells = settings: for % Total Apoptosis: cells in early- and late-stage apoptosis; for % Relative to Reference Cpd.: reference 4.0 μM camptothecin or 1.0 μM staurosporin
# Excerpt: Assays that measure apoptosis are utilized to determine whether or not compounds can induce programmed cell death in cancer cells. Annexin V is a protein that is used to detect apoptosis by binding to phosphatidylserine expressed on membranes of dead or dying cells. Fluorescently tagged with FITC, it can he used in conjunction with 7-aminoactinomycin D to determine the percentage of cells undergoing apoptosis via flow cytometry. Cells in early apoptosis will emit an FITC signal which will eventually be replaced by the far red 7-AAD signal that is associated with cell membrane permeability due to necrosis.
# In brief, for the Annexin V Assay, compounds were added to cells plated in 6-well plates. Treated cells were incubated for up to 30 hours before addition of fluorescent cell marker probes that detect the presence of annexin V. The percentage of cells undergoing apoptosis and necrosis were determined by flow cytometry.
# On day 2, working solutions of compounds (at 1000×) were prepared. To 2.0 ml media/well was added 2 μl 1000× compound diluted in 100% DMSO for final DMSO concentration of 0.1%. On day 3, plates were incubated for 30 hrs. […] Cells were collected by centrifugation at 300×g for 5 min.
# Resuspended cells were stored at 4° C. in the dark, until flow cytometry analysis.
# For flow cytometry analysis of the Annexin V Assay, sample acquisition was on the BD LSR II manufactured by BD Biosciences, San Jose, Calif. […] 10,000 events werer collected based on a stopping gate of forward scatter vs side scatter light. Acquisition was done through BD FACS DiVa software version 6.1.1 on high flow rate (60 μL/min). Calculations were as follows: Quadrant 3=lower left=live cells; Quadrant 4=lower right=early apoptosis; Quadrant 2=upper right=late apoptosis; Quadrant 1=upper left=dead cells. Percent (%)Total apoptosis was calculated as early (quadrant 4)+late (quadrant 2). Percent (%) ratio apoptosis was calculated as (experimental-No treatment/positive control)*100. All statistical analyses are done using GraphPad Prism or Microsoft Excel.
# [2] = system: DNA fragmentation in A549 cells; assay: DNA Fragmentation Assay (Cell Death Detection ELISA); assay type: cell-based; settings: for Emax at 1 µM / Emax at 10 µM: A549, read-out: % Increase Relative to Staurosporin
# [3] = Pharmacokinetics, intravenous and oral dose; set-up: species or system male CD-1 mice; settings: in vivo; for Cmax: plasma; for half-life: read-out: Half-life (t1/2; h) (converted)
# Protocol: Plasma levels of the test compounds were determined by LC-MS/MS. Data was analyzed by non compartmental pharmacokinetic model by using WinNonlin.
# [4] = A549, 72 h, read-out: IC50 Value (μM) A549 Cells
# [5] = NCI-H1975, 72 h, read-out: IC50 Value (μM) H1975 Cells
# [6] = Homo sapiens, A549, 24 h, read-out: % Increase over Background
# [7] = mouse, iv, 1 mg/kg, male CD-1 mice
# [8] = mouse, po, 5 mg/kg, male CD-1 mice
# [9] = mouse, po, 5 mg/kg, male CD-1 mice, read-out: Tmax
structure (smiles),measurement,setting,value
Cc1cc(Cl)cnc1NC(c1ccc(Cl)cc1Cl)c1ccc2cccnc2c1O (centres unmarked) [AD4-13130],HLM % Remaining@ 30 Min,[1],89%
same,IC50,A549 cells; [4],0.12 µM
same,IC50,"A549 cells; A549, read-out: IC50, cell proliferation in A549 or H1975 cells",≤ 0.1 µM
same,IC50,H1975 cells; [5],0.088 µM
same,"apoptosis, share of the cell population","annexin V in A549 cells; 1 μM, A549 cells, FIG. 16B",greater than 50%
same,% Total Apoptosis,"annexin V in A549 cells; 1 μM, A549 cells",32%
same,% Relative to Reference Cpd.,annexin V in A549 cells; 1 μM,178%
same,"late apoptosis, share of the cell population","annexin V in A549 cells; 10 μM, A549 cells, FIG. 16B",up to 20%
same,% Total Apoptosis,"annexin V in A549 cells; 10 μM, A549 cells",38%
same,% Relative to Reference Cpd.,annexin V in A549 cells; 10 μM,166%
same,apoptotic activity,"[2]; Caspase, DNA Fragmentation, Annexin-V",increased apoptotic activity
same,activation at 1 µM,[2]; [6],630%
same,activation at 10 µM,[2]; [6],684%
same,Emax at 1 µM,[2]; Homo sapiens,62%
same,Emax at 10 µM,[2]; Homo sapiens,69%
same,AUC,"[3]; male, CD-1, mouse, iv, 1 mg/kg",609 ng·h/mL
same,Tmax,"[3]; male, CD-1, mouse, iv, 1 mg/kg",4.98 min
same,AUC,"[3]; male, CD-1, mouse, po, 5 mg/kg",278 ng·h/mL
same,Vd,[3]; [7],3.24 L/kg
same,clearance,[3]; [7],27.3 mL/min/kg
same,Cmax,[3]; [7],669 ± 45 ng/mL
same,half-life,[3]; [7],112 min
same,Cmax,[3]; [8],131 ± 51 ng/mL
same,Tmax,[3]; [9],60 min
Cc1c(Cl)cnc(NC(c2cccc(Cl)c2Cl)c2ccc3cccnc3c2O)c1F (centres unmarked) [AD4-13192],HLM % Remaining@ 30 Min,[1],100%
same,IC50,A549 cells; [4],0.15 µM
same,IC50,H1975 cells; [5],0.19 µM
same,% Total Apoptosis,"annexin V in A549 cells; 1 μM, A549 cells",29%
same,% Total Apoptosis,"annexin V in A549 cells; 10 μM, A549 cells",30%
same,activation at 10 µM,[2]; [6],561%
same,Emax at 1 µM,[2]; Homo sapiens,11%
same,Emax at 10 µM,[2]; Homo sapiens,55%
same,AUC,"[3]; male, CD-1, mouse, iv, 1 mg/kg",1390 ng·h/mL
same,Tmax,"[3]; male, CD-1, mouse, iv, 1 mg/kg",4.98 min
same,AUC,"[3]; male, CD-1, mouse, po, 5 mg/kg",115 ng·h/mL
same,Vd,[3]; [7],0.56 L/kg
same,clearance,[3]; [7],12 mL/min/kg
same,Cmax,[3]; [7],3550 ± 571 ng/mL
same,half-life,[3]; [7],88.2 min
same,Cmax,[3]; [8],59 ± 21 ng/mL
same,Tmax,[3]; [9],30 min
Oc1c(C(Nc2ccccn2)c2ccc(C(F)(F)F)cc2)ccc2cccnc12 (centres unmarked) [compound 10460],IC50,"H1975 cells; NCI-H1975, H1975 cells, 72 hours post compound treatment, read-out: IC50 (best fit value from FIG. 10)",0.304 µM
same,IC50,"H1975 cells; NCI-H1975, H1975 cells, 72 hours post compound treatment, read-out: Log IC50 (best fit value from FIG. 10) (converted)",0.304 µM
same,IC50,"H1975 cells; NCI-H1975, MTT, 72 hours, read-out: IC50 Value (μM) H1975 Cells",0.3 µM
